Laboratory results: patent publication US20220160686A1, “MACROCYCLIC AZOLOPYRIDINE DERIVATIVES AS EED AND PRC2 MODULATORS” (Fulcrum Therapeutics, Inc., priority 2019, published 2022)
Where two headings read alike, the source gives them in different places.

Tests used:
EZH2/PRC2 complex = EZH2/PRC2 complex (Homo sapiens, UniProt O75530); assay: Histone methyltransferase assay (radioisotope-based HotSpot); type: biochemical; conditions: EZH2/PRC2 complex 10 nM, core histone substrate 0.05 mg/ml, 3H-SAM 1 μM; read-out: IC50, inhibitory effects on the HMT enzyme
Sequence of EZH2/PRC2 complex (O75530 whole entry): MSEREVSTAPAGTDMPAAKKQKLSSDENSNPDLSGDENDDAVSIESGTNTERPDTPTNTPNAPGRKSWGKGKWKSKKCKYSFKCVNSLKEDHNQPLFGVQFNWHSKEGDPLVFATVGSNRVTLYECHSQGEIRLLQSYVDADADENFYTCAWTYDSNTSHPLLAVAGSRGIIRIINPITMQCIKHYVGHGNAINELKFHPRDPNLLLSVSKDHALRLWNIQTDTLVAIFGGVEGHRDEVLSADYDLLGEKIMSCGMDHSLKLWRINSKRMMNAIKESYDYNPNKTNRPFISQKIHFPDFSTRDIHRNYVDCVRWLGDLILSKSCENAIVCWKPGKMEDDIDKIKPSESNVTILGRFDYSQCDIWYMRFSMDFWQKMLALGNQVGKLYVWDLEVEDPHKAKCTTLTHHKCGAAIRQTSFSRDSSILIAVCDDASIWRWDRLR
Sequence of EZH2/PRC2 complex (Q15910 whole entry partner): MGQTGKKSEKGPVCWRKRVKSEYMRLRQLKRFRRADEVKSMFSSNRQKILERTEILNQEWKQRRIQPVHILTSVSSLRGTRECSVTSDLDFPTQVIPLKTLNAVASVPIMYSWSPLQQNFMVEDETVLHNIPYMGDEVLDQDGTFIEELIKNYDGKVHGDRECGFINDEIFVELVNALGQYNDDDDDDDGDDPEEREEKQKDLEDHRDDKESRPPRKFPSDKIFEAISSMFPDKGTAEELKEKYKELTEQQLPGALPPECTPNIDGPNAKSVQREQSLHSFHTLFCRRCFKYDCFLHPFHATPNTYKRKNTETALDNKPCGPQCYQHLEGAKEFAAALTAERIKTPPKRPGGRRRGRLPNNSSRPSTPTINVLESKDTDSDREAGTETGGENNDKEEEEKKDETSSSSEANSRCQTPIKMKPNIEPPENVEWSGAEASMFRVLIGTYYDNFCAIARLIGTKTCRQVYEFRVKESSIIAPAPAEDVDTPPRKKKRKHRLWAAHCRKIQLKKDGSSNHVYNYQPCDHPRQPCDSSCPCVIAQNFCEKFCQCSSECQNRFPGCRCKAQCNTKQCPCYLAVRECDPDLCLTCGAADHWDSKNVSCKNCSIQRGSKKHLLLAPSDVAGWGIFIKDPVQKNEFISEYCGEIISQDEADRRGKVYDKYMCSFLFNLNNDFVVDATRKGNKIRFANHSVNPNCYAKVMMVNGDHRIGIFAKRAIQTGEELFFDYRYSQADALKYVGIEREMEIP
Sequence of EZH2/PRC2 complex (Q15022 whole entry partner): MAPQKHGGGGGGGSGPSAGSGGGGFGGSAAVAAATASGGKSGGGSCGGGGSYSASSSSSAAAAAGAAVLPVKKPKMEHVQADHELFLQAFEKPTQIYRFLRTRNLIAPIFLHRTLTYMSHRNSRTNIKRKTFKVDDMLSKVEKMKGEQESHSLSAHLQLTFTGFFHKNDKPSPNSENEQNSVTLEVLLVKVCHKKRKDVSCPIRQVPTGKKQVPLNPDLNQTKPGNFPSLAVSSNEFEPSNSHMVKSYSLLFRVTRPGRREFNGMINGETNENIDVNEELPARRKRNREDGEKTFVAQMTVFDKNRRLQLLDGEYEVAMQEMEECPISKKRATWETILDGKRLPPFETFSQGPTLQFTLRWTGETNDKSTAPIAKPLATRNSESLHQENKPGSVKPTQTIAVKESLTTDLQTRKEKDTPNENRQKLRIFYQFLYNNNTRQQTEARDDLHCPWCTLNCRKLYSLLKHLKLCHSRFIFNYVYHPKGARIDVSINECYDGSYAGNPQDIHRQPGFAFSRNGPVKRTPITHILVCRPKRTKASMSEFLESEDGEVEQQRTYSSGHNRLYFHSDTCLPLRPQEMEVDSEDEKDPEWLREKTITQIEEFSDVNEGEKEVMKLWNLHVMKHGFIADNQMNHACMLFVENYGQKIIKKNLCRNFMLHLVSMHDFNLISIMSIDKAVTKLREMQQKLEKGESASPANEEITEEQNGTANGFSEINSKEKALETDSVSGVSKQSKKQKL
Method: Effect of compounds of the present disclosure on EZH2/PRC2 complex methyltransferase functional activity was measured using the radioisotope-based HotSpot assay described by Horiuchi, K. Y., et al. Assay Drug Dev Technol. 11(4):227-36 (2013). Briefly, compounds were prepared in a 10-point 3-fold serial dilution in DMSO from a 10 mM stock in ECHO qualified plate using Assist Plus (Integra Biosciences) liquid handler. […] Nanoliter quantities of each compound's concentration series were transferred into the enzyme/substrate mix using (Echo 550, LabCyte Inc. Sunnyvale, Calif.) acoustic dispenser and pre-incubated for 20 min at room temperature. The methylation reaction was initiated by the addition of 1 μl of 5 μM S-Adenosyl-L-[methyl-^3H]methionine (^3H-SAM) and incubated at 30° C. for 1 h. The final concentration of the EZH2/PRC2 complex, core histone substrate and ^3H-SAM were 10 nM, 0.05 mg/ml, and 1 μM respectively. The % activity of test samples were calculated with reference to positive (no compound) and negative (no EZH2/PRC2) controls on the plate using Excel (Microsoft). The resulting values were exported to Prism (GraphPad software) to generate concentration response curves and IC50 values using the four-parameter logistic equation.

[1] = tested on: human P-glycoprotein HEK cells (HEK-P-gp); assay: H3K27me3 immunocytochemistry assay in P-gp expressing HEK293T cells, with or without elacridar; type: cell-based; conditions: Homo sapiens, 4 days compound treatment
Procedure, shortened: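 HEK293T stably expressing human ABCB1 (vinblastine-selected), 1000 cells/well, treated with serially diluted compound for 4 days at 37° C, with or without 250 nM elacridar. Fixed cells stained with anti-H3K27me3 plus Alexa 488 secondary and Hoechst; imaged at 10×, nuclei identified by Hoechst.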

[2] = biological target: T1, biotinylated AVI-tagged EED (76-441) (Homo sapiens, UniProt O75530); assay: EED binding SPR assay; conditions: 1:1 binding model; read-out: KD, equilibrium dissociation constant as measured by surface plasmon resonance (SPR)
T1 construct: GST (N, cleaved yes); made in house; host or cells: E. coli BL21(DE3), co-expressed with pGro7
T1 sequence (O75530 76-441 limits assumed): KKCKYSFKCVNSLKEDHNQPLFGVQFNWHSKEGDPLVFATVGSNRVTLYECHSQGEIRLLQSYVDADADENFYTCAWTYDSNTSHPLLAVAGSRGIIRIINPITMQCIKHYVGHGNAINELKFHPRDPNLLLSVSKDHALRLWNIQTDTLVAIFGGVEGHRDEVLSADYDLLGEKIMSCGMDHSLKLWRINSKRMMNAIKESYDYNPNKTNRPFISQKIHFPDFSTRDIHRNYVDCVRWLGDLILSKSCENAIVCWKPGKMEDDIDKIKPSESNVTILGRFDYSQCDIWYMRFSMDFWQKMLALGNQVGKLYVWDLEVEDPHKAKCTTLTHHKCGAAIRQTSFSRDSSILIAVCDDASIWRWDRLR
Method: Biotinylated AVI-tagged EED was produced using standard molecular biology techniques. A pGEX plasmid with a GST-preScission-cleavage-site-AVI-EED(76-441) sequence was placed into E. coli BL21(DE3) cells and co-expressed with pGro7. The E. coli were grown in shaker flasks in LB with ampicillin at 37° C. at 110 rpm to an OD600=0.7. At this time the temperature was lowered to 15° C. and IPTG was added to 0.3 mM. The cells were allowed to express overnight. Cells were then harvested.
For purification, the E. coli cell pellet was lysed into a buffer of 50 mM Tris pH 8.0, 500 mM NaCl, 5% glycerol and 5 mM DTT. The lysate was loaded onto a GSTrap FF column from GE Healthcare. After washing, the bound protein was eluted with 50 mM Tris pH 8.0, 500 mM NaCl, 5% glycerol, 5 mM DTT and 15 mM GSH. The collected fractions were combined and incubated with PreScission enzyme overnight at 4° C. The cleaved protein was then passed through a GSTrap FF column in a buffer of 50 mM Tris pH 8.0, 500 mM NaCl, 5% glycerol and 5 mM DTT. The cleaved protein was confirmed through mass spectrometry. The AVI-EED(76-441) was then buffer exchanged into 50 mM Bicine pH 8.3, 10 mM ATP, 10 mM magnesium acetate and 50 μM D-Biotin. 3 mg of BirA enzyme was added to the system and incubated at 4° C. for 2 hours to biotinylate the AVI-EED(76-441). The biotinylated-AVI-EED(76-441) was then buffer exchanged into 20 mM Tris pH 8.0 and 400 mM NaCl and passed through a size exclusion column of Superdex 200 16/60 Increase. The purified monomeric biotinylated-AVI-EED(76-441) was confirmed through SDS-PAGE, LC-MS and analytical size exclusion chromatography.
All surface plasmon resonance (SPR) assays were performed using a GE Biacore S200 utilizing GE Biotin CAPture chips. Capturing of CAP reagents was performed with a flow rate of 2 μL/min for 90 seconds. For protein capturing, a solution of 50 μg/mL of biotinylated AVI-tagged EED (76-441) in 10 mM HEPES pH 7.4, 150 mM NaCl, 0.05% Tween 20 and 2% DMSO (Running Buffer) was flowed over the chip with a flow rate of 5 μL/min for a contact time of 30 seconds. Final readings were 2200-2400 RU. For compounds, 7 concentrations were made with 3-dilutions using the Running Buffer for a total of 300 μL of each concentration in a 96-well microplate. During the binding experiments, a flow rate of […] was used for an association time of 90 seconds followed by a disassociation time of 180 seconds. The compartment temperature was set at 10° C. with the chip at 25° C. During regeneration the flow rate was set to 30 μL/min for 30 seconds. All fittings were done using a 1:1 binding model.

[3] = HEK293, 96 h, without elacridar, read-out: IC50, inhibitory activity on human P-glycoprotein HEK cells (HEK-P-gp)
[4] = HEK293, with 250 nM elacridar, read-out: IC50, inhibitory activity on human P-glycoprotein HEK cells (HEK-P-gp) pretreated with elacridar

Row | IC50 (EZH2/PRC2 complex) [nM] | Kd [2] [nM] | SMILES | IC50 [1, 3] [nM] | IC50 [1, 4] [nM]
1 | > 500 |  | Cc1ncccc1-c1cc2c(n3cnnc13)NCc1c(F)ccc3c1[C@H](CO3)CO2 [Compound 185, (R)-12-fluoro-4-(2-methylpyridin-3-yl)-7a,8,13,14-tetrahydro-7H-[1,2,4]triazolo[4′,3′:1,6]pyrido[3,2-b]benzofuro[4,3-fg][1,4]oxazonine] | > 500 | > 500
2 |  | < 2.5 | Cn1ncc(O)c1-c1cc2c(n3cnnc13)NCc1c(F)ccc3c1C(CO3)CO2 [Compound 196, (S)-5-(12-fluoro-7a,8,13,14-tetrahydro-7H-[1,2,4]triazolo[4′,3′:1,6]pyrido[3,2-b]benzofuro[4,3-fg][1,4]oxazonin-4-yl)-1-methyl-1H-pyrazol-4-ol] | 25 to 50 | 50 to 100
3 | > 500 |  | CC(=O)N1CCC(c2cc3c(n4cnnc24)NCc2c(F)cccc2COC3)CC1 [Compound 198, 1-(4-(12-fluoro-6,8,13,14-tetrahydro-[1,2,4]triazolo[4′,3′:1,6]pyrido[3,2-c]benzo[g][1,5]oxazonin-4-yl)piperidin-1-yl)ethan-1-one] |  | 

Further lines, the molecule ahead of its results:

Row | SMILES | IC50 (EZH2/PRC2 complex) [nM] | Kd [2] [nM] | IC50 [1, 3] [nM] | IC50 [1, 4] [nM]
4 | Cc1nccc(O)c1-c1cc2c(n3cnnc13)NCc1c(F)ccc3c1C(CO3)CO2 [Compound 192, (S)-3-(12-fluoro-7a,8,13,14-tetrahydro-7H-[1,2,4]triazolo[4′,3′:1,6]pyrido[3,2-b]benzofuro[4,3-fg][1,4]oxazonin-4-yl)-2-methylpyridin-4-ol] |  | 10 to 50 | > 500 | > 500
5 | Cc1cc(Cl)cnc1-c1cc2c(n3cnnc13)NCc1c(F)ccc3c1[C@@H](CO3)CO2 [Compound 166, (S)-4-(5-chloro-3-methylpyridin-2-yl)-12-fluoro-7a,8,13,14-tetrahydro-7H-[1,2,4]triazolo[4′,3′:1,6]pyrido[3,2-b]benzofuro[4,3-fg][1,4]oxazonine] |  | 2.5 to 5 | > 500 | > 500
6 | Cc1ncccc1-c1cc2c(n3cc(C(=O)O)nc13)NCc1c(F)ccc3c1[C@@H](CO3)CO2 [Compound 177, (S)-5-fluoro-12-(2-methylpyridin-3-yl)-6,7,15,15a-tetrahydro-1H-benzofuro[4,3-fg]imidazo[r,2′:1,6]pyrido[3,2-b][1,4]oxazonine-10-carboxylic acid] |  | 10 to 50 | > 500 | > 500
